Measurements from publication PMC4956396 (Molecular Pain, 2016).

Key:
[1] = target: Cav3.3 (Homo sapiens, UniProt Q9P0X4); test: whole-cell patch clamp, transiently transfected tsA-201 cells, % inhibition at […]; assay type: cell-based; conditions: tsA201, read-out: % inhibition at 10 μM
[2] = target: Cav3.1 (Homo sapiens, UniProt O43497); test: as above; assay type: cell-based; conditions: tsA201, read-out: % inhibition at 10 μM
Cav3.1, sequence (O43497 whole entry): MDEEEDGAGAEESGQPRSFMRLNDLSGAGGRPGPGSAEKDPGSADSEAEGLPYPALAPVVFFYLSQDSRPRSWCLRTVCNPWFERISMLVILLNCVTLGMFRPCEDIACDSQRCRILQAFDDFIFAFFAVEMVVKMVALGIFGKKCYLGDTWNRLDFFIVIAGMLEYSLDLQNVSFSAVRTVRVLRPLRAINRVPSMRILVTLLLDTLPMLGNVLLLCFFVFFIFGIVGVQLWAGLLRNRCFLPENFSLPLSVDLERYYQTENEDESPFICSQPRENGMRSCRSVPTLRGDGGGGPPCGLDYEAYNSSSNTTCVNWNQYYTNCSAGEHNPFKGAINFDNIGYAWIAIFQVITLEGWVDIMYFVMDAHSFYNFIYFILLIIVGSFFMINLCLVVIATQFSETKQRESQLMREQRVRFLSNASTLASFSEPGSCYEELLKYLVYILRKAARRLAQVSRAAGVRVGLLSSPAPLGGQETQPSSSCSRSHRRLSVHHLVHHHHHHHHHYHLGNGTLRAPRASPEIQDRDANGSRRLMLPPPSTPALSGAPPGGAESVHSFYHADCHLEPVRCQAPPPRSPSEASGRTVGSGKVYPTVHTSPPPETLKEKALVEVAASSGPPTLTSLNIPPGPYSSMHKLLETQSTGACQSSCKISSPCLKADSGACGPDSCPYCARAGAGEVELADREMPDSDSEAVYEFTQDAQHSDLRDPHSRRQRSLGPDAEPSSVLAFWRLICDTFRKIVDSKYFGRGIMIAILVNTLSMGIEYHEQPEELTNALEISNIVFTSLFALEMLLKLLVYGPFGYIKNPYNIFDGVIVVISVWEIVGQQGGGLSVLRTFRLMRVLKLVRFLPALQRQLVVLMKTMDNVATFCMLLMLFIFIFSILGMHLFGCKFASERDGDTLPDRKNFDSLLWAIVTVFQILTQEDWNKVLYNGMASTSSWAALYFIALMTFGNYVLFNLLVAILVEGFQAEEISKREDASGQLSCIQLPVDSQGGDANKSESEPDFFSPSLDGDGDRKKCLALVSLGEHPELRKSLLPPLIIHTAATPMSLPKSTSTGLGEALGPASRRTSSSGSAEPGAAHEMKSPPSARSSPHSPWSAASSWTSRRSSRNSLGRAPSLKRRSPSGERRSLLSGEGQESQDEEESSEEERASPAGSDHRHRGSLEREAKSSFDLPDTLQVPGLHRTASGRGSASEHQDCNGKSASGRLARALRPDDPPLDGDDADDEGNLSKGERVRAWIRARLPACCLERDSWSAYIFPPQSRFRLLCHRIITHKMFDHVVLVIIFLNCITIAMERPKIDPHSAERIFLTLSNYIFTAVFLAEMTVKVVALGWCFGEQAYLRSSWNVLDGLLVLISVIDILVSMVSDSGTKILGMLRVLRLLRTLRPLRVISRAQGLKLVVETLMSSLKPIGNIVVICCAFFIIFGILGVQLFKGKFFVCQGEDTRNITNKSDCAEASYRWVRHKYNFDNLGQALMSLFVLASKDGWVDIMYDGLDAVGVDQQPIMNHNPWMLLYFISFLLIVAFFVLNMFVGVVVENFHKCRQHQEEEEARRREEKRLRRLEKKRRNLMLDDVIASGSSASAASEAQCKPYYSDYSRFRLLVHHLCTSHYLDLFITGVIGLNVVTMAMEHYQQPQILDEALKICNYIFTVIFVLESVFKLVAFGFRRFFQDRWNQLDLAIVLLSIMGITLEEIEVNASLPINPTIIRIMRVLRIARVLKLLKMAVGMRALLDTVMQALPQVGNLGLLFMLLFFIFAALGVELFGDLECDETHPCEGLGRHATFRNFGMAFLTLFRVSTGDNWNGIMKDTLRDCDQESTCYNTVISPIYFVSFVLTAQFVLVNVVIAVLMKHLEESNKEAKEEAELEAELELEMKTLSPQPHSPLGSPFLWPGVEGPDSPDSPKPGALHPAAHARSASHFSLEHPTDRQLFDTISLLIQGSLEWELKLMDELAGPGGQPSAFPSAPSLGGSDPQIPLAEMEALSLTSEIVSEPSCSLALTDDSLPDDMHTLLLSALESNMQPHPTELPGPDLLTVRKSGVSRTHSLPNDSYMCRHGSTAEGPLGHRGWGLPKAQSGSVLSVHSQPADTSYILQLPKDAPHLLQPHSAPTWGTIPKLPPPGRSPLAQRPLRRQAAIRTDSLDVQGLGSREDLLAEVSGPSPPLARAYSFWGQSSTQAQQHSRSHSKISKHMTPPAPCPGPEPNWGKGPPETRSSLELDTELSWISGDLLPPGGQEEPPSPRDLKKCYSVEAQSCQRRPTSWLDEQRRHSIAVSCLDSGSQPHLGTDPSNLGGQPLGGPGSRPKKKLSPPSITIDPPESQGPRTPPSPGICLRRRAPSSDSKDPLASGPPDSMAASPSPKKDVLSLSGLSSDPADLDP

Cav3.3, sequence (Q9P0X4 whole entry): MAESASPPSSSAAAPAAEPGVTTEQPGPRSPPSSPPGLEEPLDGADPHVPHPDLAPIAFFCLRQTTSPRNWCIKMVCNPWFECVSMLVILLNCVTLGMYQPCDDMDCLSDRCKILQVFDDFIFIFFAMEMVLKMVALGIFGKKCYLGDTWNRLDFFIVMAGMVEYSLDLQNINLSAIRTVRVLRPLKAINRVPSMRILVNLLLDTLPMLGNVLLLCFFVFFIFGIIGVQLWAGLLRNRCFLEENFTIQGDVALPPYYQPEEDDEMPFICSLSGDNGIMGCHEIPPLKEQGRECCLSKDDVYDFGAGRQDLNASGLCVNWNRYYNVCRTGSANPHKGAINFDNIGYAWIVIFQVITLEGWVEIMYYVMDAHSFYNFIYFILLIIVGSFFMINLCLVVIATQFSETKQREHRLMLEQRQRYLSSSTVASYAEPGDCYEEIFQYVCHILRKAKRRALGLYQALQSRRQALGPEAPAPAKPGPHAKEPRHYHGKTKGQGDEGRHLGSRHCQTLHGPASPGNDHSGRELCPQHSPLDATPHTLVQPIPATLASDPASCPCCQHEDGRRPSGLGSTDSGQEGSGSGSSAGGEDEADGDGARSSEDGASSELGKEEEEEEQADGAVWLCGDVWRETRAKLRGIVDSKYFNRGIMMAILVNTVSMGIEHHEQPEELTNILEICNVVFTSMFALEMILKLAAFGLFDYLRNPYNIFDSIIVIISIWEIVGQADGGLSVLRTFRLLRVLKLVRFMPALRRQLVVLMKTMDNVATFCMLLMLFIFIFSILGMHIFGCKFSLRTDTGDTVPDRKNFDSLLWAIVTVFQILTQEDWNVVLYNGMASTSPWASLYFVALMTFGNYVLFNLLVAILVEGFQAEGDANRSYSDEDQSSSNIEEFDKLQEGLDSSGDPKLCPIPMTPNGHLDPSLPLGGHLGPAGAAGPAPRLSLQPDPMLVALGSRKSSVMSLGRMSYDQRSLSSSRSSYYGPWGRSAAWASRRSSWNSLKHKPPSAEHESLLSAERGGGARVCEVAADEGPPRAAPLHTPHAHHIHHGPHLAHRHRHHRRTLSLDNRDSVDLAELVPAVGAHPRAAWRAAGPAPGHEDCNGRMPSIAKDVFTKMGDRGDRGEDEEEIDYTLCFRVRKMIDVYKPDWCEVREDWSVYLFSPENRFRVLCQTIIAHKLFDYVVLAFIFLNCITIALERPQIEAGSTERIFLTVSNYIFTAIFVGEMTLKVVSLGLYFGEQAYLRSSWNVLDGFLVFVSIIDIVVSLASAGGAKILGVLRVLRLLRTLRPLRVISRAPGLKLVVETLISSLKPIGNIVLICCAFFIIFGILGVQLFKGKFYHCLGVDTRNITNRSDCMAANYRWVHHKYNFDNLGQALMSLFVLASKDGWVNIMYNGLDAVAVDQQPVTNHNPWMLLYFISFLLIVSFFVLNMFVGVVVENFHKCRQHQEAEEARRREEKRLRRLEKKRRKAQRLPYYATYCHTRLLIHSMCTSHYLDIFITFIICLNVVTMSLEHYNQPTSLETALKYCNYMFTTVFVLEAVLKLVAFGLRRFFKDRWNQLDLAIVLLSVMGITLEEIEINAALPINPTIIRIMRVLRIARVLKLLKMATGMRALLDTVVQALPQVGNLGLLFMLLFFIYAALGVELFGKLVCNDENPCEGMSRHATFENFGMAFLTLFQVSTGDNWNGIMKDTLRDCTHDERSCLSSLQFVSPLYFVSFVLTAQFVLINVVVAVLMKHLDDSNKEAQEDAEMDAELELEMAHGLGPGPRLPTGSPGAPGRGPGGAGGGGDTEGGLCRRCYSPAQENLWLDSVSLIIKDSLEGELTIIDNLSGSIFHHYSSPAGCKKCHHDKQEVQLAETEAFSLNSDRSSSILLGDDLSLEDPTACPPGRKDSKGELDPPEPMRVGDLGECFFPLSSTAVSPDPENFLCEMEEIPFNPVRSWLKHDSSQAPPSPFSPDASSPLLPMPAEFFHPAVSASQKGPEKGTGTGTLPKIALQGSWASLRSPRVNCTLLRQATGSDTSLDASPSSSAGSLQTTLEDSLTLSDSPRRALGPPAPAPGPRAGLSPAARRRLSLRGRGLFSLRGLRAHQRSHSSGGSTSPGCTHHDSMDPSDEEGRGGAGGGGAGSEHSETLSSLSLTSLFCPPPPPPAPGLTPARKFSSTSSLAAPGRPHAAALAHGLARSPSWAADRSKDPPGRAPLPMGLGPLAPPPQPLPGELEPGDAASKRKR

- inhibition at 10 µM [1]: 88.4 ± 4.08%
- inhibition at 10 µM [2]: 93.3 ± 2.78%
SMILES: COc1ccccc1-c1no[n+]([O-])c1CN1CCN(C(c2ccc(F)cc2)c2ccc(F)cc2)CC1 [10e, 3-((4-(bis(4-fluorophenyl)methyl)piperazin-1-yl)methyl)-4-(2-methoxyphenyl)-1,2,5-oxadiazole 2-oxide]
